Test results published in patent US7112584B2, “Nonsteroidal antiinflammatory agents” (Schering AG, priority 2002, dated 2006).

How the values were obtained:
[1] = biological target: T1, GR (IL-6 promoter) (Homo sapiens, UniProt P04150); test: reporter gene test in HeLa cells, transrepression, IL-6 promoter-luciferase; settings: for Emax: HeLa, read-out: Transrepression (TR)(IL-6-Promoter) Efficacy
T1 sequence (P04150 1-777): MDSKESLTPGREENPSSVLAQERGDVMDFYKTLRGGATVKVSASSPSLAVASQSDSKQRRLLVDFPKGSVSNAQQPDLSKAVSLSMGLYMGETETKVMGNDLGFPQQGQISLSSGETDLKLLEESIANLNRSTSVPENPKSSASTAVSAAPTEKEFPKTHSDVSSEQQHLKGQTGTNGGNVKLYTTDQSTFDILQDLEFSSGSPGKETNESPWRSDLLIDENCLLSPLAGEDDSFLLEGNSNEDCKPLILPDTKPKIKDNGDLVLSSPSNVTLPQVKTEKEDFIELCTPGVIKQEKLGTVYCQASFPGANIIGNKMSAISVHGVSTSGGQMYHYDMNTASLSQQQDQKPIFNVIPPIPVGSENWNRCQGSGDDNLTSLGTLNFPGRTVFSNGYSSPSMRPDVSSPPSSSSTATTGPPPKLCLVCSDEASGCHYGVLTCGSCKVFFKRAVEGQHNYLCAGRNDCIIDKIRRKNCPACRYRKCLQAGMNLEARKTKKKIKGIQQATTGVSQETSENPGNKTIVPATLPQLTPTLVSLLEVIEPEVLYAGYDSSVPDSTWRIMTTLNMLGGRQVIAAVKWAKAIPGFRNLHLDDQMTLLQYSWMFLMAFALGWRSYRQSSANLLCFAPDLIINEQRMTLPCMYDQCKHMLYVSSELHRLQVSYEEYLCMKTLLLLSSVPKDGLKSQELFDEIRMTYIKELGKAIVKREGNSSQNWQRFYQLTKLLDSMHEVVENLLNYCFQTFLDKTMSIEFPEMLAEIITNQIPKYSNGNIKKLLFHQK
Description: (§1) The MMTV promoter (transactivation) and the IL-6 promoter (transrepression) in each case were upstream to the gene that codes for the luciferase. By means of the photometric determination of the enzyme activity of the luciferase, it was possible to measure the activation of the transcription (MMTV-promoter-construct) or the inhibition of the transcription (IL-6-promoter-construct) by the GR.
(§2) This dissociation of the mechanisms of action was determined with the aid of the reporter gene test in stable transfixed human HeLa cells. To determine the transactivation induced by the GR, the MMTV promoter, which is set before a luciferase gene, is used. Via the photometric determination of the luciferase activity, it was possible to determine the transactivation activities of the GR after binding the test compounds. The inhibition of the transcription of the luciferase gene, induced by tetradecanoyl-phorbol acetate (TPA) under the control of the IL-6 promoter or the collagenase promoter (transpression) by the GR after binding the test substances, was also determined by the measurement of luciferase activity in HeLa cells.

[2] = tested on: secretion of cytokine IL-8 in human monocyte cell line THP-1; test: inhibition of LPS-triggered IL-8 secretion in THP-1 cells (ELISA); assay type: cell-based; set-up: Inhibition of IL-8 Secretion Efficacy: concentration or dose not given beside the values; settings: THP-1, LPS-triggered; for IC50: Homo sapiens
Description: The concentration of the cytokines was determined in the supernatant with use of commercially available ELISA kits.
The potency of the inflammation inhibition is determined by the inhibition of the secretion of cytokine IL-8 in a cellular test. […] The concentration of the cytokine was determined in the supernatant by commercially available ELISA kits. In this connection, the compounds of formula I show a high to very high potency and action (>50%) in the inhibition (see Table 4). The potency of the racemates is considerably lower than that of the pure enantiomers.

[3] = biological target: T2, human GR (Homo sapiens, UniProt P04150); test: glucocorticoid receptor (GR) binding test, cytosol of Sf9 cells, [3H]-dexamethasone; settings: human GR from Sf9 cytosol
T2 construct: made in house; host or cells: Sf9 cells infected with recombinant baculovirus (cytosol preparation)
T2 sequence (P04150 1-777): T1 sequence (P04150 1-777)
Source text: The binding of substances to the glucocorticoid receptor (GR) is examined with the aid of a recombinantly produced receptor. Cytosol preparations of Sf9 cells, which had been infected with recombinant baculoviruses, which code for the GR, are used for the binding studies.

[4] = tested on: croton oil-induced inflammation; test: croton oil-induced ear inflammation, edema formation in mice; assay type: in vivo; settings: systemic, two hours before croton oil, ear weight
Description: The antiinflammatory actions of the compounds of general formula I were tested in the animal experiment by tests in the croton oil-induced inflammation in rats and mice (J. Exp. Med. (1995), 182, 99–108). In this connection, croton oil in ethanolic solution was administered topically to the animals' ears. The test substances were also administered topically or systemically simultaneously with or two hours before the croton oil. After 16–24 hours, the ear weight was measured as a yardstick of the inflammatory edema, the peroxidase activity was measured as a yardstick of the invasions of granuloctyes, and the elastase activity was measured as a yardstick of the invasion of neutrophilic granuloctyes.
The antiinflammatory action of the compounds of general formula I were tested in an animal experiment in croton oil-induced inflammation in mice and in rats (J. Exp. Med. (1995), 182, 99–108). In this connection, croton oil in ethanolic solution was administered topically to the animals' ears. The test substances were systemically administered for two hours before the croton oil. After 16–24 hours, the ear weight was measured as a yardstick for the inflammatory edema.

[5] = biological target: T3, GR (MMTV promoter) (Homo sapiens, UniProt P04150); test: reporter gene test in HeLa cells, transactivation, MMTV promoter-luciferase; settings: for Transactivating (TA)(MMTV-Promoter) Efficacy: HeLa cells, luciferase; for TA:TR EC50:IC50: MMTV promoter EC50 : IL-6 promoter IC50
T3 sequence (P04150 1-777): T1 sequence (P04150 1-777)
Description: as §1, §2

[6] = tested on: tyrosinamino transferase (TAT); test: induction of tyrosinamino transferase (TAT) in liver homogenates; assay type: in vivo; settings: mice, 8 hours after administration, vs untreated control
Source text: One of the most frequent undesirable effects of a glucocorticoid therapy is the so-called “steroid diabetes” [cf. Hatz, H. J., Glucocorticoide: Immunologische Grundlagen, Pharmakologie und Therapierichtlinien [Glucocorticoids: Immunological Bases, Pharmacology and Therapy Guidelines], Wissenschaftliche Verlagsgesellschaft mbH, Stuttgart, 1998]. The reason for this is the stimulation of the gluconeogenesis in the liver by induction of the enzymes that are responsible for this effect and by free amino acids, which develop from the degradation of proteins (catabolic action of glucocorticoids). A key enzyme of the catabolic metabolism in the liver is the tyrosinamino transferase (TAT). The activity of this enzyme can be determined photometrically from liver homogenates and represents a good yardstick of the undesirable metabolic actions of the glucocorticoids. To measure the TAT induction, the animals are sacrificed 8 hours after the test substances are administered, the livers are removed, and the TAT activity in the homogenate is measured.
As parameters for the side effects of the catabolic metabolism induced by steroids, the activity of the enzyme tyrosinamino transferase (TAT) was determined by photometry from liver homogenates. The activity represents a good yardstick for the undesirable catabolic actions of the glucocorticoids. To measure the TAT induction, the animals (mice and rats) are killed 8 hours after the test substance is administered, the liver is removed, and the TAT activity is measured in the homogenates.

[7] = biological target: T4, GR (collagenase promoter) (Homo sapiens, UniProt P04150); test: reporter gene test in HeLa cells, transrepression, collagenase promoter-luciferase; assay type: cell-based; settings: TPA-induced; for IC50: read-out: Transrepression (TR)(Collagenase Promoter) IC50
T4 construct: endogenous in cells; host or cells: HeLa cells stably transfected with promoter-luciferase reporters (MMTV, IL-6 or collagenase promoter)
T4 sequence (P04150 1-777): T1 sequence (P04150 1-777)

Compound	IC50 [1]	Emax [1]	melting point	IC50 [2]	Inhibition of IL-8 Secretion Efficacy [2]	IC50 [3]	Edema Inhibition with 3 mg/kg [4]	Edema Inhibition with 30 mg/kg [4]	EC50 [5]	Transactivating (TA)(MMTV-Promoter) Efficacy [5]	TA:TR EC50:IC50 [5]	Induction Factor for TAT with 3 mg/kg [6]	Induction Factor for TAT with 30 mg/kg [6]	Transrepression (TR)(Collagenase Promoter) Efficacy [7]	IC50 [7]
Cc1noc(=O)c2ccc(NC(=O)C(O)(CC(C)(C)c3cc(F)cc4c3OCO4)C(F)(F)F)cc12 (racemic) [Example 18]	5.7 nM	63%	215 to 217 °C	–	–	–	–	–	–	–	–	–	–	–	–
Cc1noc(=O)c2ccc(NC(=O)C(O)(CC3(c4cc(F)ccc4O)CCC3)C(F)(F)F)cc12 (racemic) [Example 28]	–	–	138 °C	860 nM	100%	2 nM	–	–	–	–	–	–	–	–	–
Cc1noc(=O)c2ccc(NC(=O)C(O)(CC3(c4cccc5c4OCC5)CC3)C(F)(F)F)cc12 (single isomer, unassigned) [Example 13]	–	–	249 to 255 °C	37 nM	68%	< 0.3 nM	–	–	–	–	–	–	–	–	–
Cc1noc(=O)c2ccc(NC(=O)C(O)(CC3(c4cc(F)ccc4O)CCC3)C(F)(F)F)cc12 (single isomer, unassigned) [Example 29]	1.5 nM	79%	–	31 nM	86%	0.35 nM	34%	66%	13 nM	59%	8.7	1.0	2.0	105%	3.4 nM
Cc1noc(=O)c2ccc(NC(=O)C(O)(CC(C)(C)c3cccc4c3OCO4)C(F)(F)F)cc12 (single isomer, unassigned; (+)) [Example 2, (+)-6-[4-(Benzo[1,3]dioxol-4-yl)-2-hydroxy-4-methyl-2-trifluoromethyl-valeroyl-amino]-4-methyl-2,3-benzoxazin-1-one]	0.92 nM	66%	–	29 nM	57%	< 0.3 nM	55%	86%	11 nM	71%	11.9	1.4	2.4	92%	3.7 nM
